For test [1], the target named is T1, WRN [UniPro: Q14191 (WRN_HUMAN), N500-C946] (Homo sapiens (Human), UniProt Q14191). Put plainly: WRN ATPase assay (ADP-Glo). The test is classed as biochemical. Conditions: WRN enzymatic activity assay. (ADP-Glo turns the ADP formed in a reaction into a luminescent signal.)
In test [2] the target is T1, WRN [UniPro: Q14191 (WRN_HUMAN), N500-C946]. The test can be described thus: WRN unwinding assay (FORKF DNA, fluorescence). Type of test: biochemical. Conditions: Table 14.

T1 sequence (Q14191 500-946): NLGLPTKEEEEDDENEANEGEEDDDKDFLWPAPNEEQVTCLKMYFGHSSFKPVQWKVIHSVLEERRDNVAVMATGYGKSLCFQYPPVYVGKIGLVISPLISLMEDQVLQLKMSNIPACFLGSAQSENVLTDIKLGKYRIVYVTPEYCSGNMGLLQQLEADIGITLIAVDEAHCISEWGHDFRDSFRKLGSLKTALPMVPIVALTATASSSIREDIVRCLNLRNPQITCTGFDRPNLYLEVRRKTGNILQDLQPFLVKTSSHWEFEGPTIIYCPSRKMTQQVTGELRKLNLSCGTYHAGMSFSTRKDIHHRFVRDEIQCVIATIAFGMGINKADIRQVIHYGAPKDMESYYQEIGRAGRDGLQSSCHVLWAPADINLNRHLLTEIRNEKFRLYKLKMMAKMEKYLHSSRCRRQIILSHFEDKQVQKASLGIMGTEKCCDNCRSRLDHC

As usually defined, the IC50 is the concentration at which inhibition is half-maximal. Higher therefore signals a need for much substance. For `CCc1c(N2CCN(C(=O)c3ncc4nc(Cl)sc4c3O)CC2)c(=O)n2nc(C3=CCOCC3)nc2n1CC(=O)Nc1ccc(C(F)(F)F)cc1F` [Example 199, 2-(6-(4-(2-Chloro-7-hydroxythiazolo[4,5-c]pyridine-6-carbonyl)piperazin-1-yl)-2-(3,6-dihydro-2H-pyran-4-yl)-5-ethyl-7-oxo-[1,2,4]triazolo[1,5-a]pyrimidin-4(7H)-yl)-N-(2-fluoro-4-(trifluoromethyl)phenyl)acetamide], the IC50 in test [1] and in test [2] was < 100 nM each time.

As to `CCc1c(N2CCN(C(=O)c3ccn4nccc4c3O)CC2)c(=O)n2nc(C3=CCOCC3)nc2n1CC(=O)Nc1ccc(C(F)(F)F)cc1Cl` [Example 200, N-(2-Chloro-4-(trifluoromethyl)phenyl)-2-(2-(3,6-dihydro-2H-pyran-4-yl)-5-ethyl-6-(4-(4-hydroxypyrazolo[1,5-a]pyridine-5-carbonyl)piperazin-1-yl)-7-oxo-[1,2,4]triazolo[1,5-a]pyrimidin-4(7H)-yl)acetamide], the IC50 in test [1] and in test [2] was < 100 nM each time.

Turning to `CCc1c(N2CCN(C(=O)c3cnn4cncc4c3O)CC2)c(=O)n2nc(C3=CCOCC3)nc2n1CC(=O)Nc1ccc(C(F)(F)F)cc1Cl` [Example 201, N-(2-Chloro-4-(trifluoromethyl)phenyl)-2-(2-(3,6-dihydro-2H-pyran-4-yl)-5-ethyl-6-(4-(4-hydroxyimidazo[1,5-b]pyridazine-3-carbonyl)piperazin-1-yl)-7-oxo-[1,2,4]triazolo[1,5-a]pyrimidin-4(7H)-yl)acetamide], the IC50 in test [1] and in test [2] was < 100 nM in each case.

On to `CCc1c(N2CCN(C(=O)c3ncn4cccc4c3O)CC2)c(=O)n2nc(C3=CCOCC3)nc2n1CC(=O)Nc1ccc(C(F)(F)F)cc1Cl` [Example 202, N-(2-Chloro-4-(trifluoromethyl)phenyl)-2-(2-(3,6-dihydro-2H-pyran-4-yl)-5-ethyl-6-(4-(4-hydroxypyrrolo[1,2-c]pyrimidine-3-carbonyl)piperazin-1-yl)-7-oxo-[1,2,4]triazolo[1,5-a]pyrimidin-4(7H)-yl)acetamide], for which the IC50 in test [1] and in test [2] was 100 to 1000 nM throughout.

`CCc1c(N2CCN(C(=O)c3ncc4ccn(C)c4c3O)CC2)c(=O)n2nc(C3=CCOCC3)nc2n1CC(=O)Nc1ccc(C(F)(F)F)cc1Cl` [Example 203, N-(2-Chloro-4-(trifluoromethyl)phenyl)-2-(2-(3,6-dihydro-2H-pyran-4-yl)-5-ethyl-6-(4-(7-hydroxy-1-methyl-1H-pyrrolo[3,2-c]pyridine-6-carbonyl)piperazin-1-yl)-7-oxo-[1,2,4]triazolo[1,5-a]pyrimidin-4(7H)-yl)acetamide]: the IC50 in test [1] and in test [2] was < 100 nM in each case.

For the compound `CCc1c(N2CCN(C(=O)c3ncc4ccccc4c3O)CC2)c(=O)n2nc(C3=CCOCC3)nc2n1CC(=O)Nc1ccc(C(F)(F)F)cc1Cl` [Example 204, N-(2-Chloro-4-(trifluoromethyl)phenyl)-2-(2-(3,6-dihydro-2H-pyran-4-yl)-5-ethyl-6-(4-(4-hydroxyisoquinoline-3-carbonyl)piperazin-1-yl)-7-oxo-[1,2,4]triazolo[1,5-a]pyrimidin-4(7H)-yl)acetamide], the IC50 in test [1] and in test [2] was < 100 nM each time.

Take `CCc1c(N2CCN(C(=O)c3ncc4c(ccn4C)c3O)CC2)c(=O)n2nc(C3=CCOCC3)nc2n1CC(=O)Nc1ccc(C(F)(F)F)cc1Cl` [Example 205, N-(2-Chloro-4-(trifluoromethyl)phenyl)-2-(2-(3,6-dihydro-2H-pyran-4-yl)-5-ethyl-6-(4-(4-hydroxy-1-methyl-1H-pyrrolo[2,3-c]pyridine-5-carbonyl)piperazin-1-yl)-7-oxo-[1,2,4]triazolo[1,5-a]pyrimidin-4(7H)-yl)acetamide]: the IC50 in test [1] and in test [2] was < 100 nM throughout.

In the case of `CCc1c(N2CCN(C(=O)c3cnn4ccnc4c3O)CC2)c(=O)n2nc(C3=CCOCC3)nc2n1CC(=O)Nc1ccc(C(F)(F)F)cc1Cl` [Example 206, N-(2-Chloro-4-(trifluoromethyl)phenyl)-2-(2-(3,6-dihydro-2H-pyran-4-yl)-5-ethyl-6-(4-(8-hydroxyimidazo[1,2-b]pyridazine-7-carbonyl)piperazin-1-yl)-7-oxo-[1,2,4]triazolo[1,5-a]pyrimidin-4(7H)-yl)acetamide], the IC50 in test [1] and in test [2] was < 100 nM each time.

For `CCc1c(N2CCN(C(=O)CNc3ncccn3)CC2)c(=O)n2nc(C3=CCOCC3)nc2n1CC(=O)Nc1ccc(C(F)(F)F)cc1Cl` [Example 207, N-(2-Chloro-4-(trifluoromethyl)phenyl)-2-(2-(3,6-dihydro-2H-pyran-4-yl)-5-ethyl-7-oxo-6-(4-(pyrimidin-2-ylglycyl)piperazin-1-yl)-[1,2,4]triazolo[1,5-a]pyrimidin-4(7H)-yl)acetamide], the IC50 in test [1] and in test [2] was 100 to 1000 nM in each case.

Consider `CCc1c(N2CCN(C(=O)CNc3nc(=O)c4ccccc4[nH]3)CC2)c(=O)n2nc(C3=CCOCC3)nc2n1CC(=O)Nc1ccc(C(F)(F)F)cc1Cl` [Example 208, N-(2-Chloro-4-(trifluoromethyl)phenyl)-2-(2-(3,6-dihydro-2H-pyran-4-yl)-5-ethyl-7-oxo-6-(4-((4-oxo-1,4-dihydroquinazolin-2-yl)glycyl)piperazin-1-yl)-[1,2,4]triazolo[1,5-a]pyrimidin-4(7H)-yl)acetamide], for which the IC50 in test [1] and in test [2] was < 100 nM throughout.

In the case of `[2H]C([2H])(NC(=O)c1cc(NC)ccc1F)C(=O)N1CCN(c2c(CC)n(CC(=O)Nc3ccc(C(F)(F)F)cc3F)c3nc(C4=CCOCC4)nn3c2=O)CC1` [Example 209, N-(2-(4-(2-(3,6-Dihydro-2H-pyran-4-yl)-5-ethyl-4-(2-((2-fluoro-4-(trifluoromethyl)phenyl)amino)-2-oxoethyl)-7-oxo-4,7-dihydro-[1,2,4]triazolo[1,5-a]pyrimidin-6-yl)piperazin-1-yl)-2-oxoethyl-1,1-d2)-2-fluoro-5-(methylamino)benzamide], the IC50 in test [1] and in test [2] was < 100 nM throughout.

On to `CCc1c(N2CCN(C(=O)CNC(=O)c3ncnc(C)c3O)CC2)c(=O)n2nc(C3=CCOCC3)nc2n1CC(=O)Nc1ccc(C(F)(F)F)cc1Cl` [Example 210, N-(2-(4-(4-(2-((2-Chloro-4-(trifluoromethyl)phenyl)amino)-2-oxoethyl)-2-(3,6-dihydro-2H-pyran-4-yl)-5-ethyl-7-oxo-4,7-dihydro-[1,2,4]triazolo[1,5-a]pyrimidin-6-yl)piperazin-1-yl)-2-oxoethyl)-5-hydroxy-6-methylpyrimidine-4-carboxamide], for which the IC50 in test [1] and in test [2] was < 100 nM in each case.

For the compound `CCc1c(N2CCN(C(=O)CNC(=O)c3cccc(F)c3O)CC2)c(=O)n2nc(C3=CCOCC3)nc2n1CC(=O)Nc1ccc(C(F)(F)F)cc1Cl` [Example 211, N-(2-(4-(4-(2-((2-Chloro-4-(trifluoromethyl)phenyl)amino)-2-oxoethyl)-2-(3,6-dihydro-2H-pyran-4-yl)-5-ethyl-7-oxo-4,7-dihydro-[1,2,4]triazolo[1,5-a]pyrimidin-6-yl)piperazin-1-yl)-2-oxoethyl)-3-fluoro-2-hydroxybenzamide], the IC50 in test [1] and in test [2] was < 100 nM in each case.

Regarding `CCc1c(N2CCN(C(=O)CNC(=O)c3cc(N(C)C)ccc3F)CC2)c(=O)n2nc(C3=CCOCC3)nc2n1CC(=O)Nc1ccc(C(F)(F)F)cc1Cl` [Example 212, N-(2-(4-(4-(2-((2-Chloro-4-(trifluoromethyl)phenyl)amino)-2-oxoethyl)-2-(3,6-dihydro-2H-pyran-4-yl)-5-ethyl-7-oxo-4,7-dihydro-[1,2,4]triazolo[1,5-a]pyrimidin-6-yl)piperazin-1-yl)-2-oxoethyl)-5-(dimethylamino)-2-fluorobenzamide], the IC50 in test [1] and in test [2] was 100 to 1000 nM throughout.

As to `CCc1c(N2CCN(C(=O)CNC(=O)c3cc(NC)c(F)cc3F)CC2)c(=O)n2nc(C3=CCOCC3)nc2n1CC(=O)Nc1ccc(C(F)(F)F)cc1F` [Example 213, N-(2-(4-(2-(3,6-Dihydro-2H-pyran-4-yl)-5-ethyl-4-(2-((2-fluoro-4-(trifluoromethyl)phenyl)amino)-2-oxoethyl)-7-oxo-4,7-dihydro-[1,2,4]triazolo[1,5-a]pyrimidin-6-yl)piperazin-1-yl)-2-oxoethyl)-2,4-difluoro-5-(methylamino)benzamide], the IC50 in test [1] and in test [2] was < 100 nM in each case.

Regarding `CCc1c(N2CCN(C(=O)CNC(=O)c3ccc(F)c(F)c3O)CC2)c(=O)n2nc(C3=CCOCC3)nc2n1CC(=O)Nc1ccc(C(F)(F)F)cc1F` [Example 214, N-(2-(4-(2-(3,6-Dihydro-2H-pyran-4-yl)-5-ethyl-4-(2-((2-fluoro-4-(trifluoromethyl)phenyl)amino)-2-oxoethyl)-7-oxo-4,7-dihydro-[1,2,4]triazolo[1,5-a]pyrimidin-6-yl)piperazin-1-yl)-2-oxoethyl)-3,4-difluoro-2-hydroxybenzamide], the IC50 in test [1] and in test [2] was < 100 nM in each case.

On to `CCc1c(N2CCN(C(=O)CNC(=O)c3cc(NC)ccc3F)CC2)c(=O)n2nc(C3=CCOCC3)nc2n1CC(=O)Nc1ccc(C(F)(F)F)cc1F` [Example 215, N-(2-(4-(2-(3,6-dihydro-2H-pyran-4-yl)-5-ethyl-4-(2-((2-fluoro-4-(trifluoromethyl)phenyl)amino)-2-oxoethyl)-7-oxo-4,7-dihydro-[1,2,4]triazolo[1,5-a]pyrimidin-6-yl)piperazin-1-yl)-2-oxoethyl)-2-fluoro-5-(methylamino)benzamide], for which the IC50 in test [1] and in test [2] was < 100 nM throughout.

Regarding `CCc1c(N2CCN(C(=O)CNC(=O)c3nccs3)CC2)c(=O)n2nc(C3=CCOCC3)nc2n1CC(=O)Nc1ccc(C(F)(F)F)cc1F` [Example 216, N-(2-(4-(2-(3,6-Dihydro-2H-pyran-4-yl)-5-ethyl-4-(2-((2-fluoro-4-(trifluoromethyl)phenyl)amino)-2-oxoethyl)-7-oxo-4,7-dihydro-[1,2,4]triazolo[1,5-a]pyrimidin-6-yl)piperazin-1-yl)-2-oxoethyl)thiazole-2-carboxamide], the IC50 in test [1] and in test [2] was < 100 nM each time.

Values taken from patent publication US20260015358A1, “BICYCLIC DERIVATIVES, COMPOSITIONS AND USES THEREOF” (Danatlas Pharmaceuticals Co., Ltd., priority 2023, published 2026).
